# Measurements reported in the METLIN SMRT retention time set (Domingo-Almenara et al. 2019).
# Test: gradient 5% acetonitrile 3 min, to 50% in 2 min, to 85% in 15 min, held 3 min, 100 µL/min
# Settings: column: Zorbax Extend-C18 2.1 x 50 mm; eluents: water / acetonitrile, 0.1% formic acid
# Procedure, shortened: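 Values are retention times taken from adduct peaks that software picked and an analyst inspected. The pure standards were run as mixtures of ~100 molecules on HPLC linked to a quadrupole time-of-flight mass spectrometer, in positive and negative ionization mode. A Zorbax Extend-C18 column (2.1 × 50 mm, 1.8 μm) was used at 100 μL/min with water and acetonitrile, each including 0.1% formic acid.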
row,SMILES,RP-LC retention time [s]
1,Cc1cccc(CC(=O)N2C[C@@H]3C[C@H]2C[C@@H]3NS(=O)(=O)c2ccccc2)c1,832
2,O=C(CN1C(=O)C2CCCCN2c2ccc(C(=O)N3CCCCC3)cc21)NCc1ccco1 (configuration not stated),784
3,COc1ccc(-c2n[nH]c3c2C(c2cccnc2)N(c2ccc(Br)cc2)C3=O)cc1 (configuration not stated),768
4,Cc1ccc2nc(-c3cc(Br)ccc3F)c(Nc3ccc4c(c3)OCO4)n2c1,762
5,O=C(NCCNC(=O)Nc1cccc(Cl)c1)Nc1cccc(Cl)c1,782
6,Cc1ccc2c(C(=O)O)cc(NC(=O)C3CCC3)cc2n1,574
7,O=S(=O)(c1cccnc1)N1CC(n2cc(COc3ccc(F)cc3)nn2)C1,798
8,CCOC1CCN(C(=O)c2ccc(F)cc2)CC1,760
9,CN(C)c1ccc(CNC(=O)C2CCN(S(=O)(=O)c3ccc4c(c3)CCCC(=O)N4)CC2)cc1,607
10,CCn1ccc(NC(=O)NC2CCCC2)n1,730
11,COc1ccc(-c2noc(-c3nc(C4CC4)no3)n2)cc1,1090
12,CCn1nnc2cc(-c3noc(CNC(=O)Cc4ccccc4)n3)ccc21,767
13,CCSc1nnc(-c2nn(C)c3c2CN(S(=O)(=O)c2cc(F)ccc2F)CC3)n1CC,949
14,CCc1nc2ccccc2c(=O)n1Cc1noc(-c2ccc(F)cc2)n1,998
15,COc1ccc(Cn2cccc2-c2nc(C)no2)cc1,1020
16,COC(=O)C1=CN(c2cccc(Br)c2)c2cc(F)ccc2S1(=O)=O,903
17,O=C1C2N=NN(Cc3nc(-c4cccc(C(F)(F)F)c4)no3)C2C(=O)N1c1ccc2c(c1)CCC2 (configuration not stated),1170
18,O=C(N[C@H]1C[C@@H]2C[C@H]1CN2C(=O)Nc1ccc2c(c1)OCO2)c1cccs1,623
19,CCc1cc(=O)n(CC(=O)Nc2ccc(C)c(Cl)c2)c(N2CCOCC2)n1,871
20,Cc1noc(CNC(=O)C2CCN(C(=O)Cc3cn(C)c4ccccc34)CC2)n1,656
21,O=S(=O)(c1ccc(-c2noc(-c3ccc(Cl)cc3)n2)cc1)N1CCOCC1,1160
22,O=C(NCc1cc(F)ccc1F)C1CCN(c2cncnc2N2CCCC2)CC1,653

row,SMILES,RP-LC retention time [s]
1,COc1ccc(OC)c2sc(NC(=O)C3CCCCN3S(C)(=O)=O)nc12 (configuration not stated),793
2,COc1ccc2c(c1)C1CC(C)(O2)N(C)C(=O)C1S(=O)(=O)c1ccc(C)cc1 (configuration not stated),1020
3,COc1ccc(NC(=O)Cn2c(=O)n(-c3ccc(C)cc3)c3ncccc32)c(OC)c1,872
4,Cc1cc(C)cc(NC(=O)CN2C(=O)CSc3ccc(C(=O)N4CCCC4)cc32)c1,634
5,Cc1nnc(-c2ccc3ccn(CC(=O)NCc4ccccc4)c3c2)o1,1010
6,CCOC(=O)c1ccccc1NC(=O)N(Cc1cccs1)C1CCN(CC)CC1,756
7,COc1ccc(OC)c(NC(=O)COc2cc(C(F)(F)F)c3c(C)nn(C)c3n2)c1,1100
8,Cc1ccc(S(=O)(=O)N2CCCN(c3ccc(=O)n(-c4ccccc4)n3)CC2)c(C)c1,916
9,COc1cccc(NC(=O)Cn2nc3c(Oc4cccc(Cl)c4)nccn3c2=O)c1,858
10,Fc1ccc(-c2noc(-c3nnn4c3COC(c3ccc(Cl)cc3)C4)n2)cc1 (configuration not stated),1250
11,Cc1nc(-c2ccc(N3CCN(C(=O)c4ccccc4F)CC3)nc2)sc1C,873
12,O=C(NC1CCCCC1)C1CCCN(c2ncnc3c2nc2n3CCCCC2)C1 (configuration not stated),778
13,Cc1ccc(N2CCC(NC(=O)Cc3cccc(F)c3)C2=O)cc1 (configuration not stated),829
14,CN(C)CC1(O)CCC2(CCN(C(=O)c3ccsc3)CC2)CC1,576
15,Cn1c(=O)c(C(=O)NC2CCN(Cc3ccccc3)CC2)nc2cccnc21,574
16,CC(C)CCN1C(=O)CN(S(=O)(=O)c2ccccc2)CC1(C)C(=O)NCc1ccc(F)cc1 (configuration not stated),1030
17,Cc1cc(/C=C2\SC(=S)NC2=O)cc(C)c1O,906
18,O=C(CCn1cnc2cc(-c3noc(-c4cccc5[nH]ccc45)n3)ccc21)N1CCCC1,701
19,CC(C)c1noc(-c2ccc(-n3cnc(C(=O)NC4CCCCC4)c3)nc2)n1,741
20,Cc1nc(C2CCOCC2)n(C2CCN(S(=O)(=O)c3c(C)c(C)cc(C)c3C)C2)n1 (configuration not stated),874
21,O=C(NC1CCCC1)N1CCc2nc(-c3ccccc3)ncc2C1,822
22,COc1ccc(Cn2nc3c(S(=O)(=O)N4CCOCC4)cccn3c2=O)cc1F,773

row,SMILES,RP-LC retention time [s]
1,CC1CCN(c2cnn(CC(=O)Nc3cccc(Cl)c3F)c(=O)c2Cl)CC1,1020
2,CCOc1ccccc1C(=O)N1CCCCC1c1nncn1CC1CC1 (configuration not stated),746
3,O=C(Nc1cccc2ccc(-n3ccnc3)nc12)c1ccc2c(c1)OCO2,620
4,CN1C(=O)[C@H]2CN(Cc3ccccc3OC(F)(F)F)C[C@H]2C1=O,691
5,Cc1nn(-c2ccccc2)c(C)c1S(=O)(=O)N1CCC(C(=O)N2CCN(C)CC2)CC1,631
6,O=C(Cc1cccc(F)c1)N1CCC(n2nc(-c3ccsc3)ccc2=O)CC1,812
7,CCCc1noc(-c2ccnc(-n3ncc(C(=O)NC4CC4)c3C)c2)n1,839
8,Cc1cccc(-c2nc(Cn3nnc(C(=O)NCc4ccc(C(F)(F)F)cc4)c3C)c(C)o2)c1,1210
9,CCCN1CCN(C(=O)C2CC(=O)N(c3ccc4c(c3)CCN4C(=O)CC)C2)CC1 (configuration not stated),566
10,Cc1ccc(C)c(N2CCN(C(=O)c3[nH]c(C)c(S(=O)(=O)N4CCOCC4)c3C)CC2)c1,928
11,NS(=O)(=O)c1ccc2nc(NC(=O)COc3ccc(Cl)cc3)sc2c1,766
12,O=C(Cn1c(=O)c2cc(-c3cccs3)nn2c2ncccc21)Nc1ccccc1F,839
13,COc1ccc(-c2cn3c(CC(=O)N4CCN(c5ccccc5OC)CC4)csc3n2)cc1OC,698
14,CCCNC(=O)N1CCN(c2cc(-c3ccc(OC)c(OC)c3)ncn2)CC1,601
15,COc1ccccc1C1(CNS(=O)(=O)c2cccc(Cl)c2C)CCOCC1,969
16,O=C1CC(c2noc(-c3cc(F)ccc3F)n2)CN1c1ccc(F)cc1 (configuration not stated),944
17,O=C(Nc1cccc2c1CCCC2)C1CCN(S(=O)(=O)c2ccc3[nH]c(=O)ccc3c2)CC1,808
18,CCOc1ccc(-c2noc(Cn3c(=O)n(C(C)C)c(=O)c4ccccc43)n2)cc1OC,1080
19,c1cc(-c2sc(-c3ccncc3)c(-c3ccncc3)c2-c2ccncc2)ccn1,575
20,CC1CN(S(=O)(=O)c2cccc(-c3cn4ccccc4n3)c2)CC(C)O1 (configuration not stated),640
21,Cc1ccccc1C(=O)Nc1c(-c2ccccc2)nc2ccccn12,634
22,COC(=O)c1ccc(NC(=O)N2CCCC2c2cc(C)on2)cc1 (configuration not stated),739

row,SMILES,RP-LC retention time [s]
1,O=C(NCc1c(F)cccc1F)C(=O)Nc1ccccc1Cl,971
2,O=C(NCc1cccc(C(F)(F)F)c1)C1CCN(c2cnc3nccnc3c2)CC1,754
3,O=C(C1CCN(c2ccc(Sc3cccc(F)c3)nn2)CC1)N1CCN(c2ccccn2)CC1,626
4,Cc1cc(N2CCN(C(=O)Nc3ccc(F)c(Cl)c3)CC2)nc(N2CCOCC2)n1,665
5,Cc1ccc2c(Nc3ccc4c(c3)OCO4)c(C(=O)N3CCCC3)cnc2n1,591
6,CN1CCCN(C(=O)C2CC(=O)N(c3ccc4c(c3)CCN4C(=O)C3CC3)C2)CC1 (configuration not stated),564
7,CC(C)NC(=O)CSc1nccnc1N1CCN(c2ccccc2)CC1,867
8,COc1ccc(OCC(=O)N2CCN(c3nccn3-c3ccccc3F)CC2)cc1,573
9,CC1CN(S(=O)(=O)c2cccc(-c3cn4cc(Cl)ccc4n3)c2)CC(C)O1 (configuration not stated),873
10,CCOc1ccc(-n2nnnc2CNS(=O)(=O)c2cccc(C(F)(F)F)c2)cc1,892
11,COc1cccc(CNC(=O)N2CCC3(C2)C(=O)N(C)c2ccc(OC)cc23)c1 (configuration not stated),704
12,c1cncc(CN2CC(Oc3ccc(-c4noc(-c5ccncc5)n4)cc3)C2)c1,813
13,CCc1ccc(-c2nc(C3CC(=O)N(c4ccc(C)cc4)C3)no2)cc1 (configuration not stated),1110
14,COc1ccc(-c2noc(-c3ncn4c3COC(c3ccc(F)cc3)C4)n2)c(OC)c1 (configuration not stated),954
15,CCOc1ccc(-c2noc(Cn3nc(-c4cccc(OC)c4)ccc3=O)n2)cc1,1070
16,O=C(C1CCOC1)N1CCCn2nc(-c3ccc(Cl)cc3)cc2C1 (configuration not stated),767
17,CN1CC[C@H](c2c(O)cc(O)c3c(=O)cc(-c4ccccc4Cl)oc23)[C@H](O)C1,689
18,CCOc1ccc(N2CC(c3nc(-c4ccc5c(c4)OCO5)no3)CC2=O)cc1 (configuration not stated),982
19,O=C(CCc1ccccc1)Nc1ccc2[nH]c(=O)oc2c1,713
20,Fc1ccccc1N1CCN(c2ncnc3sc4c(c23)CCC4)CC1,1150
21,COCC(=O)N1CCCc2ccc(NC(=O)NCc3cccs3)cc21,662
